In patent publication US10294202B2, “Pyrrolidinones as herbicides” (FMC Corporation, priority 2013, dated 2019):

Tests used:
Assay in all cases: Test H preemergence mixture test (Colby)
Settings in all cases: applied alone, 21 d, mean of three replicates, scale 0-100
corn (ZEAMD) = format: in vivo, Zea mays
From the text: (§1) Colby's Equation was used to determine the herbicidal effects expected from the mixtures. Colby's Equation (Colby, S. R. “Calculating Synergistic and Antagonistic Responses of Herbicide Combinations,” Weeds, 15(1), pp 20-22 (1967)) calculates the expected additive effect of herbicidal mixtures and for two active ingredients is of the form: Pa+b=Pa+Pb−(PaPb/100)
(§2) where • Pa+b is the percentage effect of the mixture expected from additive contribution of the individual components: • Pa is the observed percentage effect of the first active ingredient at the same use rate as in the mixture, and • Pb is the observed percentage effect of the second active ingredient at the same use rate as in the mixture. In the following Tables, rates are shown in grams of active ingredient per hectare (g a.i./ha); “Obsd.” is the observed effect. “Exp.” is the expected effect calculated from Colby's Equation.
(§3) This test evaluated the effect of mixtures of compound 80 with several commercial herbicides on four plant species. Seeds of plant species selected from corn (ZEAMD, Zea mays), soybean (GLXMA, Glycine max), waterhemp (common waterhemp, AMATA, Amaranthus rudis), and giant foxtail (SETFA, Setaria faberii) were planted into a silt loam soil and treated preemergence with test chemicals formulated in a non-phytotoxic solvent mixture which included a surfactant and applied using a volume of 281 L/ha. Each treatment was replicated three times. Treated plants and controls were maintained in a greenhouse using supplemental lighting to maintain a photoperiod of about 16 h; daytime and nighttime temperatures were about 24-30° C. and 19-21° C., respectively. Nutrients were applied using a balanced fertilizer applied through the watering system. At 21 d after treatment, all species were compared to controls and visually evaluated. Plant response ratings were calculated as the means of the three replicates, are summarized in Tables H1 through H5, and are based on a scale of 0 to 100 where 0 is no effect and 100 is complete control. A dash (-) response means no test result. The Expected (Exp.) results were calculated using Colby's Equation as described for Test G above.

soybean (GLXMA) = format: in vivo, Glycine max
From the text: as §1, §2, §3

waterhemp (AMATA) = format: in vivo, Amaranthus rudis
From the text: as §1, §2, §3

giant foxtail (SETFA) = format: in vivo, Setaria faberii
From the text: as §1, §2, §3

## CCc1cccc(C)c1N(C(=O)CCl)[C@@H](C)COC [S-metolachlor]
Corn (ZEAMD); 31 g a.i./ha
  ZEAMD Obsd.: 13
Corn (ZEAMD); 125 g a.i./ha
  ZEAMD Obsd.: 20
Soybean (GLXMA); 31 g a.i./ha
  GLXMA Obsd.: 18
Soybean (GLXMA); 125 g a.i./ha
  GLXMA Obsd.: 15
Waterhemp (AMATA); 31 g a.i./ha
  AMATA Obsd.: 0
Waterhemp (AMATA); 125 g a.i./ha
  AMATA Obsd.: 85
Giant foxtail (SETFA); 31 g a.i./ha
  SETFA Obsd.: 73
Giant foxtail (SETFA); 125 g a.i./ha
  SETFA Obsd.: 99

## CCOC(=O)c1ccccc1S(=O)(=O)NC(=O)Nc1nc(Cl)cc(OC)n1 [Chlorimuron-ethyl]
Corn (ZEAMD); 1 g a.i./ha
  ZEAMD Obsd.: 22
Corn (ZEAMD); 31 g a.i./ha
  ZEAMD Obsd.: 73
Soybean (GLXMA); 1 g a.i./ha
  GLXMA Obsd.: 0
Soybean (GLXMA); 31 g a.i./ha
  GLXMA Obsd.: 22
Waterhemp (AMATA); 1 g a.i./ha
  AMATA Obsd.: 47
Waterhemp (AMATA); 31 g a.i./ha
  AMATA Obsd.: 89
Giant foxtail (SETFA); 1 g a.i./ha
  SETFA Obsd.: 0
Giant foxtail (SETFA); 31 g a.i./ha
  SETFA Obsd.: 47
